Like-named read-outs stand apart in the source and are kept apart here.
Columns and labels:
[1] = biological target: pig alpha-2-delta receptor 2 (A2DR2) (UniProt A0A8W4FF87); test: [3H]Gabapentin scintillant proximity A2DR2 binding assay (A2DR2 SPA, Biological Method 5); conditions: displacement of [3H]-gabapentin
Method: (§1) Recombinant HEK 293 cells expressing pig A2DR1 and A2DR2 subunits were grown under normal cell culture conditions (RPMI-1640 media with 10% FBS, 200 μg G418, and 1% penicillin/streptomycin 1t 37° C. with 5% CO2) until reaching confluency in T-75 flasks, at which time they were harvested. The harvested cells were suspended in ice-cold 5 mM Tris/5 mM ethylenediaminetetraacetic acid (“EDTA”) buffer, pH 7.4 (“TE buffer”) containing phenylmethylsulfonyl fluoride (“PMSF”) (0.1 mM) and Roche Complete Protease Inhibitor Cocktail, and allowed to sit on ice for 30 minutes. The cells were broken by sonication using 20 bursts, 40-50 cycles, and then centrifuged at 3000×g for 10 minutes. The resulting supernatant was transferred to a new tube and centrifuged at 50,000×g for 30 minutes. The resulting pellet was resuspended in 10 mM HEPES buffer, pH 7.4, homogenized, and stored at—80° C. The A2DR1 or A2DR2 membrane protein concentration was determined by the Pierce BCA method using bovine serum albumin (“BSA”) as the standard.
(§2) The [^3H]gabapentin SPA binding assay was performed in Costar 3632 96-well, clear bottom assay plates using Wheatgerm agglutinin beads (Amersham Pharmacia Biotech). Pig A2DR1 or A2DR2 membranes (10-20 μg protein per well) prepared above in Step (1) and SPA beads (0.5 mg per well) were mixed with 30 nM [^3H]gabapentin (52 Ci/mmol; Amersham Pharmacia Biotech) in 10 mM HEPES/10 mM MgSO4 assay buffer, pH 7.4 using KOH. The final well volume was 200 μL and non-specific binding was determined in the presence of 10 μM unlabeled pregabalin. The final mixture containing A2DR1 or A2DR2 membrane protein incubated with SPA beads, test compounds, and [^3H]gabapentin was incubated at room temperature for 15-24 hours, and the plates were then counted on a Wallace Trilux 1450 Microbeta scintillation counter. Step (3): Determination of IC50 values
(§3) Curve fitting and IC50 values were calculated using a four-parameter, non-linear regression equation from GraphPad Prism 3.0 software, while Ki values were determined using the equation of Chang and Prussoff.

[2] = biological target: pig alpha-2-delta receptor 1 (A2DR1) (Sus scrofa, UniProt A0A287BIN3); test: [3H]Gabapentin scintillant proximity A2DR1 binding assay (A2DR1 SPA, Biological Method 5); conditions: displacement of [3H]-gabapentin
Method: as §1, §2, §3

[3] = biological target: T1, alpha-2-delta receptor 2 (A2DR2) (Homo sapiens, UniProt Q9NY47); test: [3H]Gabapentin A2DR2 binding assay (filter, Biological Method 4); conditions: displacement of [3H]-gabapentin
T1 construct: expressed in transfected cells; host or cells: HEK 293 (membrane preparation)
Excerpt: HEK 293 recombinant cells expressing A2DR1 or A2DR2 protein are harvested and washed in phosphate buffered saline (“PBS”). The cells are centrifuged and resuspended in tris(hydroxymethyl)aminomethane-ethylenediaminetetraacetic acid (“Tris-EDTA” or “TE”) buffer containing Roche Complete Protease Inhibitor Cocktail. The cells are homogenized, centrifuged at 3000×g, and the supernatant centrifuged again at 50,000×g. The resulting pellet is resuspended and homogenized in TE. Following determination of A2DR1 or A2DR2 protein concentration, aliquots are stored at −70° C. until the day of testing (membrane preparation may be used for at least 6 months).
In one version, the binding assay is set up in a 96-well format using deep-well polypropylene plates. In a total volume of 500 μL, the following additions are made: 250 μL buffer [[…] N-2-hydroxyethylpiperazine-N′-2-ethanesulfonic acid (“HEPES”), pH 7.4], 25 μL [3H]gabapentin (10 nM final concentration), 200 μL thawed tissue membrane preparation from Step (1) (˜40 μg protein), and 25 μL of test compound at 7 test dilutions (for example, 0.001, 0.01, 0.03, 0.1, 0.3, 1.0, and 10 μM concentrations). Non-specific binding for each plate is determined by the addition of 10 μM of pregabalin instead of test compound in a few of the 96 wells. Following incubation for 45 minutes at 21° C., the contents of the wells are filtered under vacuum onto glass filter/B (“GF/B”) filter mats and then washed 4×1 mL with chilled 50 mM tris(hydroxymethyl)aminomethane (“Tris”) HCl, pH 6.9. The mats are placed into plastic pouches, scintillation cocktail is added, the pouches are sealed, and radioactivity for each sample is counted.
Specific binding values for each concentration are transformed and then analyzed by a 4-parameter nonlinear regression equation provided by Prism graphics software by Graph Pad to determine IC50 values by conventional means.

[4] = test system: MIA Rat (monosodium iodoacetate-induced osteoarthritis, right knee joint); test: Monosodium iodoacetate-induced osteoarthritis in rat model of joint cartilage damage (MIA Rat); type: in vivo; conditions: for % I @ 30 mg/kg BID (%) (± SEM): inhibition of loss of hind limb joint function in MIA at Day 14: 30 mg/kg BID oral
Excerpt: One end result of the induction of osteoarthritis in this model, as determined by histologic analysis, is the development of an osteoarthritic condition within the affected joint, as characterized by the loss of Toluidine blue staining and formation of osteophytes. Associated with the histologic changes is a concentration-dependent degradation of joint cartilage, as evidenced by affects on hind-paw weight distribution of the limb containing the affected joint, the presence of increased amounts of proteoglycan or hydroxyproline in the joint upon biochemical analysis, or histopathological analysis of the osteoarthritic lesions.
The invention compounds typically are not effective for relieving joint pain when administered in an acute model, such as the instant MIA Rat model, which has a duration of just 14 or 28 days.
Generally, In the MIA Rat model on Day 0, the hind-paw weight differential between the right arthritic joint and the left healthy joint of male Wistar rats (150 g) are determined with an incapacitance tester, model 2KG (Linton Instrumentation, Norfolk, United Kingdom). The incapacitance tester has a chamber on top with an outwardly sloping front wall that supports a rat's front limbs, and two weight sensing pads, one for each hind paw, that facilitates this determination. Then the rats are anesthetized with isofluorine, and the right, hind leg knee joint is injected with 1.0 mg of mono-iodoacetate (“MIA”) through the infrapatellar ligament. Injection of MIA into the joint results in the inhibition of glycolysis and eventual death of surrounding chondrocytes. The rats are further administered either an invention compound or vehicle (in the instant case, water) daily for 14 days or 28 days.
The invention compound is typically administered at a dose of 30 mg of per kilogram of rat per day (30 mg/kg/day), but may be administered at other doses such as, for example, 10 mg/kg/day, 60 mg/kg/day, 90-mg/kg/day, or 100 mg/kg/day according to the requirements of the invention compound being studied. It is well within the level of ordinary skill in the pharmaceutical arts to determine a proper dosage of an invention compound in this model.
Administration of an invention compound in this model is optionally by oral administration or by intravenous administration via an osmotic pump. After 7 and 14 days for a two week study, or 7, 14, and 28 days for a four week study, the hind-paw weight distribution is again determined. Typically, the animals administered vehicle alone place greater weight on their unaffected left hind paw than on their right hind paw, while animals administered an invention compound show a more normal (i.e., more like a healthy animal) weight distribution between their hind paws. This change in weight distribution was proportional to the degree of joint cartilage damage. Percent inhibition of a change in hind paw joint function is calculated as the percent change in hind-paw weight distribution for treated animals versus control animals. For example, for a two week study, [formula] wherein: ΔWC is the hind-paw weight differential between the healthy left limb and the arthritic limb of the control animal administered vehicle alone, as measured on Day 14; and • ΔWG is the hind-paw weight differential between the healthy left limb and the arthritic limb of the animal administered an invention compound as measured on Day 14.
In order to measure biochemical or histopathological end points in the MIA Rat model, some of the animals in the above study may be sacrificed, and the amounts of free proteoglycan in both the osteoarthritic right knee joint and the contralateral left knee joint may be determined by biochemical analysis. The amount of free proteoglycan in the contralateral left knee joint provides a baseline value for the amount of free proteoglycan in a healthy joint. […]

[5] = Drug plasma half-life assay (DPH-LA) and bioavailability in rat; type: in vivo; conditions: male
Method: Three fasted male Sprague-Dawley rats are dosed by intravenous infusion via cannula over 5 minutes of 3 mg/kg of invention compound in 1.0 mL saline solution, and the cannulas were each rinsed with 1.0 mL saline solution immediately following infusion. Animals are fed at 4 hours post dose. Blood samples are collected by conventional means in tubes containing ethylenediaminetetraacetic acid (“EDTA”) at Times 0 (predose), 0.083 (end of infusion), 0.25, 0.5, 1, 2, 4, 6, 8, 12, and 24 hours post dose. Plasma is separated from the blood and stored frozen until analyzed by conventional high performance liquid chromatography, whereby 5.0 ng/mL was the lower limit of quantitation.
Three fasted male Wistar rats are dosed by oral gavage with optionally 5 mg/kg, 30 mg/kg, or 300 mg/kg of invention compound. Animals are fed at 4 hours post dose. Blood samples are collected by conventional means in tubes containing EDTA at Times 0 (predose), 0.5, 1, 2, 4, 6, 8, 12, and 24 hours post dose. Plasma is separated from the blood and stored frozen until analyzed.
Mean plasma half-life was determined by thawing and assaying the plasma samples using high performance liquid chromatography by conventional means. A concentration of test compound of 5.0 ng/mL was the lower limit of quantitation.
Plasma half-life was calculated as the time in hours by conventional means. Drug quantitation is done by comparison to standard samples containing known amounts of test compound.
Mean bioavailability for test compound was determined by calculating area under the concentration-time curve (“AUC”) Extrap using conventional methods.

Chain of pig alpha-2-delta receptor 1 (A2DR1) (A0A287BIN3 1-1109): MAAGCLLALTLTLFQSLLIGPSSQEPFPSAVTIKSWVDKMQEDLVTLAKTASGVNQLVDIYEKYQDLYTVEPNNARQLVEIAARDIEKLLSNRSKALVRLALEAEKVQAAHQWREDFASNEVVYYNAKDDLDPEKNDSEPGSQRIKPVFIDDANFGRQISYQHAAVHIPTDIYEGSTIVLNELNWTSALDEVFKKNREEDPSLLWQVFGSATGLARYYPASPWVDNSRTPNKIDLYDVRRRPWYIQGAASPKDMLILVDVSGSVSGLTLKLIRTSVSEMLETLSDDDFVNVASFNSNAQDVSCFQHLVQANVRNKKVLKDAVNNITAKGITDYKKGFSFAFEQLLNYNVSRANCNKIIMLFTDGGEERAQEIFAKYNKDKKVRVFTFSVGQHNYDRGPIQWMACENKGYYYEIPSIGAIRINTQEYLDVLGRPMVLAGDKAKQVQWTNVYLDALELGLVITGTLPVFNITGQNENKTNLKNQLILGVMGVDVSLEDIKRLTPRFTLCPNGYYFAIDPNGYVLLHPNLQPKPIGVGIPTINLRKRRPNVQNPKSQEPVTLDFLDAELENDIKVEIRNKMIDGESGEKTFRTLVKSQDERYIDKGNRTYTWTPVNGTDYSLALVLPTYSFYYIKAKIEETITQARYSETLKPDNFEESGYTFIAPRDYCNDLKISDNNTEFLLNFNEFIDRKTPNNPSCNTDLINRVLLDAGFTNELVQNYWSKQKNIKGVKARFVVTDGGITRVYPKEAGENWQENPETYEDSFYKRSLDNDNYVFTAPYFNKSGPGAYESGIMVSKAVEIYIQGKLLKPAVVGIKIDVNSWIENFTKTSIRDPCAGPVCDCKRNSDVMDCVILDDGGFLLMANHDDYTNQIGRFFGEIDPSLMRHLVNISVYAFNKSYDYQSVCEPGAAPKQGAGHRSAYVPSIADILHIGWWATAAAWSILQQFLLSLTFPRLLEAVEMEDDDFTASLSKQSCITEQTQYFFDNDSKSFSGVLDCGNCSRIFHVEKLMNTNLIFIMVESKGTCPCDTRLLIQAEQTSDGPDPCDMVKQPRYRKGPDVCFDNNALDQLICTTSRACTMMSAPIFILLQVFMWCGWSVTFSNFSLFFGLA
T1 sequence (Q9NY47 19-1150): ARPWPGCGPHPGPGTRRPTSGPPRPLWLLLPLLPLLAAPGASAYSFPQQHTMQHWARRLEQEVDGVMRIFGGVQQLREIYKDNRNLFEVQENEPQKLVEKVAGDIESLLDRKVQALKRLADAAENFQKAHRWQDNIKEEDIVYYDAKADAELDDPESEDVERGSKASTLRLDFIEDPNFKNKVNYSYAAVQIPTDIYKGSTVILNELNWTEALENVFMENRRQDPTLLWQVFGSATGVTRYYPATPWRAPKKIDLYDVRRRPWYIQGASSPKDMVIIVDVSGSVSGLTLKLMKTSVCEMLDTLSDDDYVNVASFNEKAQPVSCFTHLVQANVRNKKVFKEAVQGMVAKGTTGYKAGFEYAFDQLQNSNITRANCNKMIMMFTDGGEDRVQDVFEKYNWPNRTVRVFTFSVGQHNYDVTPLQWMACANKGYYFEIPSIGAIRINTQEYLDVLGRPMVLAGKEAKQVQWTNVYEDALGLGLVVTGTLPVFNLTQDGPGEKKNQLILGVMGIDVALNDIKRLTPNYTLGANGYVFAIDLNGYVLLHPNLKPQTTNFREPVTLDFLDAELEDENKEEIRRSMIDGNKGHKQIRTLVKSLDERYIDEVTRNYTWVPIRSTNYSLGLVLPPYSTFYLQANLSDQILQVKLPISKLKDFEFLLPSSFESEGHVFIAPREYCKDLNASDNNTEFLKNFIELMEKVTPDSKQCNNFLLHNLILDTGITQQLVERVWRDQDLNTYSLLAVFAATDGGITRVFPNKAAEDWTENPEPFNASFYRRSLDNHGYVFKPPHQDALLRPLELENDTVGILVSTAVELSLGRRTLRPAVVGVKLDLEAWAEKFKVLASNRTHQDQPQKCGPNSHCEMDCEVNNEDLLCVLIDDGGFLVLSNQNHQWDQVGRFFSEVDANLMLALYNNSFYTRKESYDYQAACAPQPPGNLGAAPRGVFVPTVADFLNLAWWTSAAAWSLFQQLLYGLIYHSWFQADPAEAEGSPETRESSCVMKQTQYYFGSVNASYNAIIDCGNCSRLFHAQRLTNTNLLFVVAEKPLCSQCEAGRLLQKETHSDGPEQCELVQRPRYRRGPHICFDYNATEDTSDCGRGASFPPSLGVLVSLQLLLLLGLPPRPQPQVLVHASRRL

Row | Structure (SMILES) | IC50 [1] | IC50 [2] | also measured
1 | COCCN1[C@H](C(=O)O)C[C@@H]2CCCC[C@@H]21 [Example A7] | ≥ 10 µM | ≥ 10 µM | 
2 | CCN1[C@H](C(=O)O)C[C@@H]2CCCC[C@@H]21 [Example A3] | ≥ 10 µM | ≥ 10 µM | 
3 | O=c1[nH]c([C@@H]2C[C@@H]3CCCC[C@@H]3N2)no1 [Example F1] |  |  | IC50 [3]: ≥ 10 µM; % I @ 30 mg/kg BID (%) (± SEM): inhibition of loss of hind limb joint function in MIA at Day 14 ([4]; 2-week MIA study, Day 14, rat): (i) 82^2; %
4 | CC(C)(C)C1CCC2NC(C(=O)O)CC2C1 (centres unmarked) [Example O8] | ≥ 10 µM | ≥ 10 µM | 
5 | CS(=O)(=O)NC(=O)[C@@H]1C[C@@H]2CCCC[C@@H]2N1 [Example E1] | ≥ 10 µM | ≥ 10 µM | 
6 | CCCN1[C@H](C(=O)O)C[C@@H]2CCCC[C@@H]21 [Example A5] | ≥ 10 µM | ≥ 10 µM | 
7 | O=C(O)[C@]12C[C@H]1[C@@H]1CCCC[C@@H]1N2 [Example Q1] | ≥ 10 µM | 2.6 µM | 
8 | O=C(O)C1CC2C(CCCC2C(F)(F)F)N1 (centres unmarked) [Example O10] | ≥ 10 µM | ≥ 10 µM | % I @ 10 mg/kg/day (%) (± SEM): inhibition of loss of hind limb joint function in MIA at Day 14 ([4]; 10 mg/kg/day via osmotic pump, 2-week MIA study, Day 14, rat): 0%
9 | CC(C)CN1[C@H](C(=O)O)C[C@@H]2CCCC[C@@H]21 [Example A6] | ≥ 10 µM | ≥ 10 µM | 
10 | CN1[C@H](C(=O)O)C[C@@H]2CCCC[C@@H]21.Cl [Example A1] | ≥ 10 µM | ≥ 10 µM | % I @ 30 mg/kg BID (%) (± SEM): inhibition of loss of hind limb joint function in MIA at Day 14 ([4]; 2-week MIA study, Day 14, rat): 59 ± 17%; bioavailability ([5]; Wistar, in vivo, rat, PO, 30 mg/kg, read-out: Mean Bioavailability): 63%; half-life ([5]; Wistar, rat, in vivo, po, 30 mg/kg, rat plasma, PO, 30 mg/kg, read-out: Mean T1/2 (converted)): 25.3 h; half-life ([5]; Wistar, rat, in vivo, po, 300 mg/kg, rat plasma, PO, 300 mg/kg, read-out: Mean T1/2 (converted)): 11.1 h
11 | CN1[C@H](C(=O)O)C[C@@H]2CCCC[C@@H]21 [[2(S),3a(S),7a(S)]-1-methyl-2,3,3a,4,5,6,7,7a-octahydroindole-2-carboxylic acid] |  |  | degree of structural damage to the cartilage ([4]; 30 mg/kg and 10 mg/kg doses, PO BID, 4 weeks post-MIA): significantly decreased; cartilage erosion severity ([4]; 30-mg/kg and 10-mg/kg doses, PO BID, MIA rat): significantly decrease; joint function limitations (differential hind-limb weight bearing) ([4]; PO BID, MIA rat): decrease joint function limitations; joint pain ([4]; all doses (3 to 30 mg/kg PO BID), 4 weeks post-MIA): significantly decreased
12 | CN(C)CC(C)(C)COC(=O)C1C[C@@H]2CCCC[C@@H]2N1 (some centres unmarked) [Example Y1] | 1.4 µM | 0.29 µM | 
13 | COC1CCC2CC(C(=O)O)NC2C1 (centres unmarked) [Example O3] |  |  | IC50 [3]: 2.23 µM
14 | CCC1CCC2CC(C(=O)O)NC2C1 (centres unmarked) [Example O1] | 4.5 µM | 1.3 µM | 
15 | O=C(O)[C@@H]1C[C@@H]2CCCC[C@@H]2N1 [OHI2CA, (2S,3aS,7aS)-octahydroindole-2-carboxylic acid, reference compound] | 0.6 µM | 0.11 µM | half-life ([5]; Sprague-Dawley, rat plasma, IV, 3 mg/kg, read-out: Mean T1/2 (converted)): 4.01 h; bioavailability ([5]; Wistar, plasma, po, administered orally, rat (footnote of Table 2), read-out: bioavailability): 72%; half-life ([5]; Wistar, plasma, po, administered orally, rat (footnote of Table 2), read-out: half-life): 4 h; bioavailability ([5]; Wistar, plasma, rat, PO, 5 mg/kg, read-out: Mean Bioavailability): 72%; half-life ([5]; Wistar, rat plasma, PO, 5 mg/kg, read-out: Mean T1/2 (converted)): 3.78 h
16 | O=c1[nH]c([C@@H]2C[C@@H]3CCCC[C@@H]3N2)no1 [F1] |  |  | % I (%) (± SEM): inhibition of loss of hind limb joint function in MIA at Day 14 ([4]; via Alzet osmotic pump (footnote 3), Day 14, rat): (ii) 59 ± 9^3%
17 | CN1[C@H](C(=O)O)C[C@@H]2CCCC[C@@H]21.Cl [A1] |  |  | bioavailability ([5]; Wistar, in vivo, po, administered orally, rat (footnote of Table 2), read-out: bioavailability): 63%; half-life ([5]; Wistar, rat, in vivo, po, administered orally, rat (footnote of Table 2), read-out: half-life): 10 h

From patent US20050143427A1, “[B]-fused bicyclic proline derivatives and their use for treating arthritic conditions” (priority 2003, published 2005)
